Experiments:
Experiment in all cases: Di-E-GSSG fluorescent reductase assay
Assay type in all cases: biochemical
ERp5 = target: T1, ERp5 (Homo sapiens, UniProt Q15084)
T1 sequence (Q15084 20-440): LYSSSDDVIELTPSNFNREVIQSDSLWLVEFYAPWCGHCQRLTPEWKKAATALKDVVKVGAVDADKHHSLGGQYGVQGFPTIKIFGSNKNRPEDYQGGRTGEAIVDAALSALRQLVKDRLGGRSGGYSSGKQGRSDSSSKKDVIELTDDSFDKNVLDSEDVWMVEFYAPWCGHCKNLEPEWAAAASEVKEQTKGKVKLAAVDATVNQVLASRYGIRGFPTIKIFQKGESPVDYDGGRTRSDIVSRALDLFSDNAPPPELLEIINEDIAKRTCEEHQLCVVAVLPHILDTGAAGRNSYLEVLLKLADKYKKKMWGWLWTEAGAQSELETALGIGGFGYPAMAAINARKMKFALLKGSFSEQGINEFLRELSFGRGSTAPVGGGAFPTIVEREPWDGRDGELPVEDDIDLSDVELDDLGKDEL

ERp72 = target: T2, ERp72 (Homo sapiens, UniProt P13667)
T2 sequence (P13667 21-645): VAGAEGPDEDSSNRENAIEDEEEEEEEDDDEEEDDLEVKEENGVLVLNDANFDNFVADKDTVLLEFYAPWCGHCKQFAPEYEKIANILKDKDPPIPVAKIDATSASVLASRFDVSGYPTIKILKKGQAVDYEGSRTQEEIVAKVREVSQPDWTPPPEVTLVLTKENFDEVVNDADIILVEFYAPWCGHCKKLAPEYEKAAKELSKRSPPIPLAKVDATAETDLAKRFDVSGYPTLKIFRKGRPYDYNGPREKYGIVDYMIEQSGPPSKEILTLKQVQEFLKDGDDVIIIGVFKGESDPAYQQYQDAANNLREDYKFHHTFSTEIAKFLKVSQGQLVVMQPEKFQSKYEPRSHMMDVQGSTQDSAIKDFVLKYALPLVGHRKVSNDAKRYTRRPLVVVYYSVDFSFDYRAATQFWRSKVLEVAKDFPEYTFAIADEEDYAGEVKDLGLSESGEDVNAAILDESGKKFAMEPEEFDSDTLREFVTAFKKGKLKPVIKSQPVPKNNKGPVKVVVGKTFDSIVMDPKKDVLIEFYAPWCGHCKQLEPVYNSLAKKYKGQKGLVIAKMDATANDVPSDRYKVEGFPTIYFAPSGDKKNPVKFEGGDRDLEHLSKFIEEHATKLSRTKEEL

ERp57 = target: T3, ERp57 (Homo sapiens, UniProt P30101)
T3 sequence (P30101 25-505): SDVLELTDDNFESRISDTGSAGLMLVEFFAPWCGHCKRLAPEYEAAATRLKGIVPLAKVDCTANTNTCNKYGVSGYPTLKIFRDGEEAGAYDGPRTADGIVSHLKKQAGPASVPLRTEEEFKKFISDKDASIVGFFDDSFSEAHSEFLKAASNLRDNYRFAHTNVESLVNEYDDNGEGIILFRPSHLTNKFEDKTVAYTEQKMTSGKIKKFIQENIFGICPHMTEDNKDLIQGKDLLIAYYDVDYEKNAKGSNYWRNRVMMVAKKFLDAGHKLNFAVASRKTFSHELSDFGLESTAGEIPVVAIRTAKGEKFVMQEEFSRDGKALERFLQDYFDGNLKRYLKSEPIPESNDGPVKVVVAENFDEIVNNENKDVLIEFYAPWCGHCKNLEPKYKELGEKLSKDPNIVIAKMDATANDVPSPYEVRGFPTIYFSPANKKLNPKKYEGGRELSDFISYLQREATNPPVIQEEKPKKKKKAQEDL

[1] = target: protein disulfide isomerase (PDI) (Homo sapiens, UniProt P07237)
protein disulfide isomerase (PDI), sequence (P07237 18-508): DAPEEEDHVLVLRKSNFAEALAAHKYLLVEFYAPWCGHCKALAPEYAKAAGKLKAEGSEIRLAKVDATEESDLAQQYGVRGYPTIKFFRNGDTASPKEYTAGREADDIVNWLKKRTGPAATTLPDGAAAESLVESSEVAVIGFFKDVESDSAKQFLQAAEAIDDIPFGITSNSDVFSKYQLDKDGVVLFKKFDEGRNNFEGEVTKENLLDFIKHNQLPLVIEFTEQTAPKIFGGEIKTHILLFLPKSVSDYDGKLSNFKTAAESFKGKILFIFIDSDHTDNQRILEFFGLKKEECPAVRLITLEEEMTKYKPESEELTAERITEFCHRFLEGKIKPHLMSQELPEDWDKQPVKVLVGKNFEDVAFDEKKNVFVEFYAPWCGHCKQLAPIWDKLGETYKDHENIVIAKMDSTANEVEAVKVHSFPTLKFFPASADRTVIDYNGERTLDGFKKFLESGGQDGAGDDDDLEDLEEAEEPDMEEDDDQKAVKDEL

COc1cc(/C=C/[N+](=O)[O-])ccc1OC(=O)c1cccc(Cl)c1Cl [HPW-RX40, 2-Methoxy-4-[(E)-2-nitrovinyl]phenyl 2,3-dichlorobenzoate]
IC50 (ERp5): 2.6 µM | IC50 (ERp72): 18.8 µM | IC50 (ERp57): 4.3 µM | IC50 [1]: 1.45 µM
